Measurements published in US4902675A, “"2-pyridyl and 4-pyridyl phosphine gold (I) anti tumor complexes"” (SmithKline Beckman Corporation, priority 1986, dated 1990).
“And” between values parts separate entries of the source, which are not always exact repeats. Equal values may be shown once.

Tests used:
[1] = maximally tolerated dose for female mice, ip qDX5 (P388 study); format: in vivo, mouse; settings: B62DF female mice, ip qDX5 regimen
Experimental: (§1) 10^6 P388 leukemia cells are inoculated ip in B6D2F1 mice. Twenty-four hours later, if the tumor inoculum proves to be free of bacterial contamination (as determined by 24 hours incubation in thioglycollate broth), animals are randomized into groups of 6 and housed in shoebox cages. The compound to be evaluated is dissolved in a minimal volume of either N,N-dimethylacetamide (DMA) or 95% ethanol (depending upon solubility). An equal volume of saline is added; if the drug comes out of solution an equal volume of polyethoxylated castor oil is added and then saline qs to a concentration such that the desired dose is delivered in 0.5 ml. The final concentration of DMA, ethanol and polyethoxylated castor oil is […]. Dilutions for lower doses are made with saline so there is a decreasing proportion of organic solvents in the vehicle with decreasing dosage. These vehicles provide soluble formulations (or suspensions). Formulations are prepared immediately prior to injection. The compound is administered ip on Days 1 through 5 (i.e. treatment is initiated 24 hrs after tumor inoculation). Each experiment includes three groups of 6 animals as untreated controls and animals treated with a positive control, cisplatin, at two dose levels. Animals are weighed as a group on Days 1, 5 and 9 and average weight change (Δ wt.) is used as a reflection of toxicity. Each experiment also includes an inoculum titration-groups of 8 mice inoculated ip with 10^5 to 10^0 P388 leukemia cells. The titration is used to calculate cell kill achieved by treatment with drugs. Animals are monitored daily for mortality and experiments are terminated after 45 days. The endpoint is median survival time (MST) and increase in lifespan (ILS) which is the percentage of increase in MST relative to untreated controls. Untreated controls inoculated ip with 10^6 P388 leukemia cells generally survive for a median of 9 to 11 days. A drug is considered active if it produces ≥25 percent ILS.
^(a) maximally tolerated dose for […] female mice on an ip qDX5

[2] = literature, Struck et al. 1966; cited from earlier work
[3] = tested on: P388 leukemia; assay: in vivo ip P388 lymphocytic leukemia mouse model, increase in lifespan; settings: mice bearing ip P388 leukemia; ip Days 1 through 5; figures separated by slashes are data from separate experiments; active if ≥25 percent ILS
Description: P388 lymphocytic leukemia is currently the most widely used animal tumor model for screening for antitumor agents and for detailed evaluation of active compounds. This tumor system is widely accepted as an antitumor agent screening tool because it is sensitive to virtually all of the clinically active antineoplastic agents; quantitative and reproducible; amenable for large-scale screening; and predictive for activity in other animal tumor models.
as §1, with “The endpoint is median survival time (MST) and increase in lifespan (ILS) which is the percentage of increase in MST relative to untreated controls. Untreated controls inoculated ip with 10^6 P388 leukemia cells generally survive for a median of 9 to 11 days. A drug is considered active if it produces ≥25 percent ILS.” left out

[4] = maximally tolerated dose for B6D2F1 mice, ip qD × 9 (B16 study); format: in vivo, mouse; settings: ip qD × 9 regimen
Experimental: (§2) In this system, groups of eight B6D2F1 mice are inoculated ip with 0.5 ml of a 10% (w:v) brei of B16 melanoma prepared from pooled sc tumors excised at 14-21 days from […] donor mice. Daily treatment is begun 24 hours after tumor impantation and is continued daily for ten (10) days. The route of drug administration is ip. The mice are monitored daily for survival for sixty (60) days. Antitumor activity is assessed by prolongation of median survival time. An ILS of≥25% indicates activity in this tumor model.
(§3) ^(b) maximally tolerated dose for B6D2F1 mice on an ipqD ×
(§4) 9 regimen (Regimen is preferably qD × 10 but supply of Compound No.
(§5) 3 was extinguished on day 9).

[5] = tested on: B16 melanoma; assay: in vivo ip B16 melanoma assay, increase in lifespan; parameters: species or system mouse; settings: mice bearing ip B16 melanoma; ip qD × 9; ILS ≥25% indicates activity
Experimental: as §2, §3, §4, §5
^(c) maximum increase in lifespan produced in mice bearing ip B16

Row | Compound | MTD, maximally tolerated dose [1] [mg/kg] | cytotoxic activity [2] | ILS (max), maximum increase in lifespan [3] | MTD, maximally tolerated dose [4] [mg/kg] | ILS, maximum increase in lifespan [5] [%]
1 | [Cl][Au][PH](CC[PH]([Au][Cl])(c1ccncc1)c1ccncc1)(c1ccncc1)c1ccncc1 [Compound 2, μ-[1,2-Bis(di-4-pyridylphosphino)ethane]bis(chlorogold)] | 12 | – | – | – | –
2 | c1ccc(P(CCP(c2ccccc2)c2ccccc2)c2ccccc2)cc1 [1,2-bis(diphenylphosphino)ethane] | – | cytotoxic activity | – | – | –
3 | OCC1OC([S][Au][PH](CC[PH]([Au][S]C2OC(CO)C(O)C(O)C2O)(c2ccccn2)c2ccccn2)(c2ccccn2)c2ccccn2)C(O)C(O)C1O (stereo not shown) [Compound 4] | 8 | – | 85% and 53% and 56% | – | –
4 | [Cl][Au][PH](CC[PH]([Au][Cl])(c1ccccn1)c1ccccn1)(c1ccccn1)c1ccccn1 [Compound 1, μ-[1,2-Bis(di-2-pyridylphosphino)ethane]bis(chlorogold)] | 6 | – | 55% and 60% | – | –
5 | [Au+].[Cl-].c1ccc(P(CCP(c2ccccn2)c2ccccn2)c2ccccn2)nc1.c1ccc(P(CCP(c2ccccn2)c2ccccn2)c2ccccn2)nc1 [Compound 3, Chlorobis[1,2-bis(di-2-pyridylphosphino)ethane]gold] | 8 | – | 80% and 75% and 83% and 84% | 10 | 43
